In experiment [1] the target is α-glucosidase. Set-up: method as in PMID 31838286. Particulars: assay of template compounds B, Fig. 1 and Fig. 5; cited from earlier work.
In experiment [2] the target is T1, α-glucosidase (Saccharomyces cerevisiae, UniProt P53341).
T1 construct: the yeast form of α-glucosidase, which was extracted from Saccharomyces cerevisiae; purchased Sigma-Aldrich; host or cells: Saccharomyces cerevisiae (extracted)
Nature of the experiment: Anti-α-glucosidase assay (p-nitrophenyl-α-D-glucopyranoside substrate, absorbance 405 nm). The experiment is classed as biochemical. Particulars: for Inhibation: IC50 determination curve; for inhibition at 750 µM: read-out: In (%), inhibition percentage against α-glucosidase. Here is the method: After this time, the p-nitrophenyl-α-D-glucopyranoside (25 μL, 4 mM) was added to the latter plate and allowed to incubate at 37 °C for 20 min. […] The percentage of inhibition (% inhibition) for each sample was calculated using the formula “[(Abs control − Abs sample)/Abs control] × 100”, and IC50 values were obtained from non-linear regression curve using the Logit method.[24]

Experiment [3] deals with T1, α-glucosidase. Nature of the experiment: Kinetic study (Lineweaver–Burk method). The experiment is classed as biochemical. Particulars: Lineweaver–Burk plots. Here is the method: Then, p-nitrophenyl-α-D-glucopyranoside at various concentrations (1–4 mM) was added to initiate the enzymatic reaction.
The type of inhibition mode was indicated by Lineweaver–Burk plots.

The mark [4] stands for this setting: IC50 (from IC50 determination curves, supplement), logarithmic fit of inhibition vs Conc., unit inferred.

The values below come from paper PMC12523282, “New 5,6-diphenyl-1,2,4-triazine-hydrazineylidene-phenoxy-1,2,3-triazole-acetamide derivatives as potent synthetic α-glucosidase inhibitors” (RSC Advances, 2025).

As usually defined, the IC50 is the concentration needed to halve the response being measured. The inhibition is the percentage by which the read-out fell short of the control.

T1 sequence (P53341 whole entry): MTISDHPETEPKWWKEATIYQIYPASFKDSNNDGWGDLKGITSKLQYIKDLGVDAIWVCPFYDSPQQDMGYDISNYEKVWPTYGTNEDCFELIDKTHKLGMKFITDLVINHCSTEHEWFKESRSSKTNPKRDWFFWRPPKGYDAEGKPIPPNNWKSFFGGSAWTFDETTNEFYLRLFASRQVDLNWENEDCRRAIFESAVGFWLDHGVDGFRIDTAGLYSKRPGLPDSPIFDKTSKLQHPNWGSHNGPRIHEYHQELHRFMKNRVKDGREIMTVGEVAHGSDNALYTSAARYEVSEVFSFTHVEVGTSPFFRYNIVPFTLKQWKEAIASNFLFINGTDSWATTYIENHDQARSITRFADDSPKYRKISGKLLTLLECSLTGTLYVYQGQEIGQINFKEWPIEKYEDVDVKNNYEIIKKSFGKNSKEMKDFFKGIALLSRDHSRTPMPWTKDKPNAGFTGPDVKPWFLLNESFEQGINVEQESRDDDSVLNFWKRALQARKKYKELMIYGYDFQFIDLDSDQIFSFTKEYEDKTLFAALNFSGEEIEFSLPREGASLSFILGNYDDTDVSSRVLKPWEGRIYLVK

Turning to `O=C(Cn1cc(COc2ccc(-c3nc4ccccc4[nH]3)cc2)nn1)Nc1ccccc1Cl` [B (R = 2-Cl, n = 0)], the IC50 at α-glucosidase [1] is 70.6 µM.

`O=C(Cn1cc(COc2ccc(-c3nc4ccccc4[nH]3)cc2)nn1)Nc1ccccc1[N+](=O)[O-]` [B (R = 2-Nitro, n = 0)]: the IC50 at α-glucosidase [1] is 35 µM.

For `O=C(Cn1cc(COc2ccc(-c3nc4ccccc4[nH]3)cc2)nn1)Nc1ccc(Br)cc1` [B (R = 4-Br, n = 0)], the IC50 on α-glucosidase [1] was 176 µM.

Take `O=C(Cn1cc(COc2ccc(-c3nc4ccccc4[nH]3)cc2)nn1)Nc1ccc(Cl)cc1` [B (R = 4-Cl, n = 0)]: at α-glucosidase [1], the IC50 is 91.6 µM.

`COc1ccc(NC(=O)Cn2cc(COc3ccc(-c4nc5ccccc5[nH]4)cc3)nn2)cc1` [B (R = 4-OMe, n = 0)]: on α-glucosidase [1], the IC50 was 112 µM.

On to `O=C(Cn1cc(COc2ccc(-c3nc4ccccc4[nH]3)cc2)nn1)Nc1ccccc1` [B (R = H, n = 0)], for which, at α-glucosidase [1], the IC50 was 51.5 µM.

On to `O=C(Cn1cc(COc2ccc(-c3nc4ccccc4[nH]3)cc2)nn1)NCc1ccccc1` [B (R = H, n = 1)], for which the IC50 at α-glucosidase [1] was 121 µM.

For the molecule `O=C(Cn1cc(COc2ccc(/C=N/Nc3nnc(-c4ccccc4)c(-c4ccccc4)n3)cc2)nn1)Nc1ccc(Cl)cc1` [Compound 13j, (E)-N-(4-Chlorophenyl)-2-(4-((4-((2-(5,6-diphenyl-1,2,4-triazin-3-yl)hydrazineylidene)methyl)phenoxy)methyl)-1H-1,2,3-triazol-1-yl)acetamide], the Inhibation at α-glucosidase [2] (Conc. 15 (unit not given)) stood at 73.02; on α-glucosidase [2] (Conc. 30 (unit not given)) it was 75.43; at α-glucosidase [2] (Conc. 60 (unit not given)), 79; at α-glucosidase [2] (Conc. 90 (unit not given)), 81. Also, the IC50 is less than 15 µM on α-glucosidase [2] (setting [4]) and 0.12 ± 0.02 µM at α-glucosidase [2] (IC50, yeast α-glucosidase, mean ± SD, at least three experiments). Also, the inhibition at 750 µM at α-glucosidase [2] worked out at 83%. In addition, the “effect of increasing inhibitor concentration on Vmax and Km” value on α-glucosidase [3] is “decrease in both Vmax and Km values”. Moreover, on α-glucosidase [3], the “type of inhibition mode” value is given as “uncompetitive α-glucosidase inhibitor”.

As to `O=C(Cn1cc(COc2ccc(/C=N/Nc3nnc(-c4ccccc4)c(-c4ccccc4)n3)cc2)nn1)NCc1ccccc1` [Compound 13m, (E)-N-Benzyl-2-(4-((4-((2-(5,6-diphenyl-1,2,4-triazin-3-yl)hydrazineylidene)methyl)phenoxy)methyl)-1H-1,2,3-triazol-1-yl)acetamide], the Inhibation was found to be 70 on α-glucosidase [2] (Conc. 15 (unit not given)); 80 at α-glucosidase [2] (Conc. 30 (unit not given)); 87 at α-glucosidase [2] (Conc. 60 (unit not given)); 88.3 on α-glucosidase [2] (Conc. 90 (unit not given)); 89 on α-glucosidase [2] (Conc. 120 (unit not given)). Further, the inhibition at 750 µM on α-glucosidase [2] came to 90%.

For `O=C(Cn1cc(COc2ccc(/C=N/Nc3nnc(-c4ccccc4)c(-c4ccccc4)n3)cc2)nn1)NCCc1ccccc1` [Compound 13n, (E)-2-(4-((4-((2-(5,6-Diphenyl-1,2,4-triazin-3-yl)hydrazineylidene)methyl)phenoxy)methyl)-1H-1,2,3-triazol-1-yl)-N-phenethylacetamide], the Inhibation at α-glucosidase [2] (Conc. 15 (unit not given)) is given as 79.27; at α-glucosidase [2] (Conc. 30 (unit not given)), 84.67; at α-glucosidase [2] (Conc. 60 (unit not given)) it was 90; on α-glucosidase [2] (Conc. 90 (unit not given)), 93; at α-glucosidase [2] (Conc. 120 (unit not given)), 98. On α-glucosidase [2] (setting [4]), this molecule came in with an IC50 of less than 15 µM. Further, the inhibition at 750 µM on α-glucosidase [2] was 100%.
